Target: Seed linoleate 13S-lipoxygenase-1 (Glycine max) (UniProt P08170)
Test: Inhibition of soybean lipoxygenase at by UV spectrophotometry

Seed linoleate 13S-lipoxygenase-1 (Glycine max), sequence (P08170 whole entry, looked up): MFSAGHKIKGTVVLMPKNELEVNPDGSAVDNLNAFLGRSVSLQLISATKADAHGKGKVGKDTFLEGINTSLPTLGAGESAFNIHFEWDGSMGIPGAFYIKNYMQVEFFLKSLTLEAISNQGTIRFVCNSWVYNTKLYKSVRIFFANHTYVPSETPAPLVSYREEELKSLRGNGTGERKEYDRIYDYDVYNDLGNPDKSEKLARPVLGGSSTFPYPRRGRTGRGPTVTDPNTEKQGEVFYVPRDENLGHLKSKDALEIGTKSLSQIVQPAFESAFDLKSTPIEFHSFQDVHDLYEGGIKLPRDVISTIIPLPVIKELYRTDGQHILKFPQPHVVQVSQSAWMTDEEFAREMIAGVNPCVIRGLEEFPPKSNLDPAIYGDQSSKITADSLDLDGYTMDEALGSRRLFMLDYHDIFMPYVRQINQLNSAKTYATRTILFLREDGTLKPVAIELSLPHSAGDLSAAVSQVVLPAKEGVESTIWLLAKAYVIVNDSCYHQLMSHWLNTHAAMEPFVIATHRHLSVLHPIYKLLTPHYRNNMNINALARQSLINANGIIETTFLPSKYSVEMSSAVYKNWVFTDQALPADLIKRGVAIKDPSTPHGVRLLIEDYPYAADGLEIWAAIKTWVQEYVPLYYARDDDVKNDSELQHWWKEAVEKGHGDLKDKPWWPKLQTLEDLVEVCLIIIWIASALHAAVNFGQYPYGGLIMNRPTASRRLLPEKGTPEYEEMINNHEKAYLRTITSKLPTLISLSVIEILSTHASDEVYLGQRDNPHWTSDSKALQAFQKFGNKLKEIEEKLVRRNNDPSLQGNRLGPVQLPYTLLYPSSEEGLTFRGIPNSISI

| IC50 [µM] | SMILES |
| --- | --- |
| 25 | Clc1ccc(Cc2noc(NC3CCCCC3)n2)cc1 [3-(4-Chlorobenzyl)-N-cyclohexyl-1,2,4-oxadiazol-5-amine] |
| 100 | CC(C)Nc1nc(Cc2ccc(Cl)cc2)no1 [3-(4-Chlorobenzyl)-N-isopropyl-1,2,4-oxadiazol-5-amine] |
| 100 | CC(C)Nc1nc(C2CCCCC2)no1 [3-Cyclohexyl-N-isopropyl-1,2,4-oxadiazol-5-amine] |
| 25 | Cc1ccc(-c2noc(NCCCN(C)C)n2)cc1 [N1,N1-Dimethyl-N3-(3-p-tolyl-1,2,4-oxadiazol-5-yl)propane-1,3-diamine] |
| 55 | COc1ccc(C(=N)NO)cc1 [N'-hydroxy-4-methoxybenzimidamide] |
| 100 | Cc1ccc(C(=N)NO)cc1 [N'-hydroxy-4-methylbenzimidamide] |
| 100 | O=[N+]([O-])c1ccc(Cc2noc(NC3CCCCC3)n2)cc1 [N-Cyclohexyl-3-(4-nitrobenzyl)-1,2,4-oxadiazol-5-amine] |
| 92 | Cc1ccc(-c2noc(NC3CCCCC3)n2)cc1 [N-Cyclohexyl-3-p-tolyl-1,2,4-oxadiazol-5-amine] |
| 50 | CC(=O)N(c1nc(-c2ccc([N+](=O)[O-])cc2)no1)C1CCCCC1 [N-Cyclohexyl-N-[3-(4-nitrophenyl)-1,2,4-oxadiazol-5-yl]acetamide] |
| 58.5 | CC(=O)N(c1nc(-c2cccc([N+](=O)[O-])c2)no1)C(C)C [N-Isopropyl-N-[3-(3-nitrophenyl)-1,2,4-oxadiazol-5-yl]acetamide] |
| 100 | CC(=O)N(c1nc(Cc2ccc(Cl)cc2)no1)C1CCCCC1 [N-[3-(4-Chlorobenzyl)-1,2,4-oxadiazol-5-yl]-N-cyclohexylacetamide] |
